Source: paper PMC4747383, “Design of a peptidic inhibitor that targets the dimer interface of a prototypic galectin” (Oncotarget, 2015)
One block for each substance: values may come before it.

How the values were obtained:
recombinant hGal-7 [1] = assay: Disruption of hGal-7 homodimers, native gel electrophoresis/Western blot; assay type: biochemical, human; conditions: for disruption of hGal-7 homodimers by biotinylated peptide: 0.5 μM hGal-7, 20 mM potassium phosphate pH 7.1, 60 min at 4°C, low SDS-PAGE Western blot, representative of two independent experiments
From the text: To measure the ability of the peptides to disrupt the formation of hGal-7 dimers, we used mild denaturing native gel electrophoresis, a commonly used approach to visualize monomer-dimer equilibrium (Fig. 1A and Supplementary Fig. S1). […] This specificity at disrupting hGal-7 dimer formation is provided by distinct three-dimensional arrangements between otherwise very similar galectin homologues. Indeed, while all monomeric galectins reveal identical topologies, dimer formation in hGal-7 proceeds through a “back-to-back” topology of the monomers while other galectins, including hGal-1 and hGal-2, adopt a “side-by-side” structural arrangement (Fig. 1B). This structural organization provides additional means to specifically target and disrupt galectin function.
Incubation of the recombinant B. hGal-1 and C. hGal-2 with hGal-7(129–135) was performed in the same potassium phosphate buffer. The effect of hGal-7(129–135) on the monomeric and dimeric forms of hGal-7/hGal-1/hGal-2 was assessed by Western blotting in native conditions with respective antibodies. The hGal-1/hGal-2 films were overexposed. PACAP28–38 was the control peptide used in order to ensure the specificity of hGal-7(129–135). Recombinant hGal-7 (0.5 μM) was also incubated with increasing concentrations of hGal-7(129–135) in 0.1 mM D. lactose or E. LacNac solutions. Results are representative of three independent experiments.
Human Gal-7 cDNA was cloned into pET-22b(+) using NdeI and HindIII restriction enzymes. Human pET-Gal-1 vector was generously donated by Dr. S. Sato (McGill University, QC, Canada). The proteins were produced in E. coli BL21 (DE3) cells at 37°C. Isopropyl β-D-1-thiogalactopyranoside (IPTG) (1 mM) was added to the bacterial culture at OD600nm = 0.6–0.7 and then incubated for 4 h at 37°C to allow protein production. Bacterial pellets were resuspended in lysis buffer (0.7 mg/mL lysozyme, 10 mM Tris pH 8, 100 mM NaCl, 1 mM EDTA, 1 mM DTT and a protease inhibitor cocktail) and then incubated for 1 h at 37°C prior to centrifugation for 30 min at 15,000 × g (4°C). The supernatant was then filtered with 500 mL bottle top filter ([…]) (Corning, New York, NY, USA) and then ran through a lactose-agarose column (Sigma, St. Louis, MO, USA). The protein was eluted in 1 mL fractions with 150 mM lactose solution. Purified fractions were analyzed by SDS-PAGE. The hGal-7 was then concentrated and purified using Centrifugal filter units (Amicon Ultra-15, 10K) (EMD, Millipore, Etobicoke, ON) in 20 mM potassium phosphate at pH 7.1. All subsequent experiments with the recombinant proteins were performed in the same buffer solution unless mentioned otherwise. Brilliant Coomassie blue was purchased from BioRad (Bio-Rad Laboratories, Mississauga, ON, Canada). The recombinant protein hGal-2 was purchased from MyBiosource (San Diego, CA, USA). […]
gaI-7 (0.5 μM) was incubated with increasing concentrations of biotin-labeled hGaI-7129–135 in 20 mM potassium phosphate buffer (pH 7.1) for 60 min at 4°C beforeWestern blot analysis in low SDS-PAGE using an anti-gaI-7 antibody. B. Similar experiments were carried out using recombinant human B. gaI-1 and C. gaI-2. Results are representative of two independent experiments.
(also on this page, place not known: www.impactjournals.com/oncotarget/ Oncotarget, Materials 2015 Supplementary hGaI-7 129–135.)

recombinant hGal-7 [2] = assay: Solid phase fluorescent binding assay on hGal-7; parameters: species or system human; conditions: hGal-7 10 μg/ml coated, unlabeled peptide (1 mM) 60 min, then biotin-labeled peptide 120 min, room temperature, Streptavidin R-phycoerythrin fluorescence, three independent experiments
From the text: Results are representative of three independent experiments. Error bars represent standard deviation.

hGal-2 = assay: Binding to hGal-2; parameters: species or system human; conditions: biotinylated peptide; Supplementary Fig. S2 quoted
recombinant hGal-1 = conditions: hGal-1 10 μg/ml coated; unlabeled peptide (1 mM) 60 min, then biotin-labeled peptide 120 min, room temperature; Streptavidin R-phycoerythrin fluorescence; three independent experiments
T cell = system: T cell; parameters: method as in PMID 25277199, PMID 24134186; conditions: ref [38], [50]; cited from earlier work

- binding to immobilized hGal-7 (recombinant hGal-7 [2]): could bind hGal-7
- binding to immobilized hGal-7 (recombinant hGal-7 [2]; listed as biotin-labeled hGal-7(129–135)): dose-dependent interaction
- binding to hGal-2 (hGal-2): not hGal-1 or hGal-2
- binding to immobilized hGal-1 (recombinant hGal-1): not hGal-1 or hGal-2
Substance: biotinylated hGal-7(129–135): biotinylated version of hGal-7(129–135), Biotin-NHS coupled via Ahx linker
- disruption of hGal-7 homodimers by biotinylated peptide (recombinant hGal-7 [1]): still capable of specifically inhibiting the formation of hGal-7 homodimers
- disruption of hGal-7 homodimers by biotinylated peptide (recombinant hGal-7 [1]; listed as biotin-labeled hGaI-7129–135): Disruption of hGaI-7 dimer

Substance: H-IRPGTVLRIRGLV-NH2 [hGal-7(13–25), peptide corresponding to hGal-7 segment between residues 13–25]
- disruption of hGal-7 homodimers (in words) (recombinant hGal-7 [1]; 0.5 μM recombinant hGal-7, 20 mM potassium phosphate pH 7.1, 1 h at 4°C, native PAGE, Western blot): less potent than hGal-7(129–135) to disrupt hGal-7 homodimers

Substance: Gal-7: human galectin-7
- effects on T cell functions and survival (T cell): strong cytotoxic and inhibitory effects on T cell functions and survival
